From patent US20250270223A1, “CRYSTAL OF SUBSTITUTED PIPERAZINE DERIVATIVE AND PREPARATION METHOD THEREFOR” (Kangbaida (Sichuan) Biotechnology Co., Ltd, priority 2022, published 2025) come the findings set out here.

A short description of data set [1]: Stability study (lighting, high-temperature, high-humidity, acceleration, intermediate conditions, long-term tests). It is filed as physicochemical. The settings on record: light 4,500 lx; 60° C.; 25° C. RH 92.5% and 72.5%; 40° C./75% RH; 30° C./65% RH; 25° C./60% RH. The text has this:
A proper amount of compound was weighed and placed in a suitable white transparent open container (such as a weighing bottle or petri dish), the container was placed in a lighting stability test chamber for drugs at an illumination of 4,500 lx±500 lx. The samples were taken for testing 5, 10, and 30 days after the placement.
A proper amount of compound was weighed and placed in a suitable open container (such as a weighing bottle or culture dish), the container was placed in an electric heated air-drying oven at 60° C. The samples were taken for testing 5, 10, and 30 days after the placement.
A proper amount of compound was weighed and placed in suitable open container (such as a weighing bottle or petri dish), the container was placed in a KNO3 saturated solution desiccator at a temperature of 25° C.±2° C. and a relative humidity of 92.5% and 72.5% respectively. The samples were taken for testing 5, 10, and 30 days after the placement.
After packaging an appropriate amount of the compound with inner packaging (pharmaceutical low-density polyethylene film, bag) and outer packaging (polyester/aluminum/polyethylene pharmaceutical composite film, bag), the compound was tested at a temperature of 40° C.±2° C. and a relative humidity of 75%±5%. […]

Data set [2] can be described thus: In vivo pharmacokinetic studies (plasma concentration of prototype drug by LC/MS/MS after gavage). The note with it: ICR male mice fasted overnight, 1 mg/mL suspension in 5% DMSO+30% HP-β-CD, plasma 0-24 h. The procedure: A proper amount of compound was weighed and 1 mg/mL suspension was prepared using the weighed compound and 5% DMSO+30% HP-β-CD. After ICR male mice fasted overnight, they were administered by gavage and their blood was collected from the jugular venous plexus at different time points of 0, 5 min, 0.25 h, 0.5 h, 1 h, 2 h, 4 h, 8 h, and 24 h. After anticoagulation with EDTA-K2, plasma was separated by centrifugation, and the concentrations of prototype drug in plasma was determined by LC/MS/MS.

With `C[C@@H](COCc1cc2n(n1)CCN(c1ncc(C(F)(F)F)cn1)C2)Nc1cn[nH]c(=O)c1C(F)(F)F` [crystalline form A, (S)-4-(Trifluoromethyl)-5-((1-((5-(5-(trifluoromethyl)pyrimidin-2-yl)-4,5,6,7-tetrahydropyrazolo[1,5-a]pyrazin-2-yl)methoxy)propan-2-yl)amino)pyridazin-3(2H)-one], the “physical and chemical stability” value in data set [1] is “good physical and chemical stability”. Also, the pharmacokinetic properties result in data set [2] was “good pharmacokinetic properties”.
